What was measured:
bedstraw = assay: Test B pre/postemergence bedstraw; assay type: in vivo, Galium aparine
How it was run: (§1)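 Herbicidal effect was estimated by eye on a ten-point control scale after plants spent twelve to sixteen days in a greenhouse following soil or foliar treatment. Foliar sprays targeted plants at one to four leaves; all doses were formulated in a non-phytotoxic solvent with surfactant.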

blackgrass = assay: Test B pre/postemergence blackgrass; assay type: in vivo, Alopecurus myosuroides
How it was run: as §1

surinam grass = assay: Test B pre/postemergence surinam grass; assay type: in vivo, Brachiaria decumbens
How it was run: as §1

cocklebur = assay: Test B pre/postemergence cocklebur; assay type: in vivo, Xanthium strumarium
How it was run: as §1

corn = assay: Test B pre/postemergence corn; assay type: in vivo, Zea mays
How it was run: as §1

crabgrass = assay: Test B pre/postemergence crabgrass; assay type: in vivo, Digitaria sanguinalis
How it was run: as §1

soybean = assay: Test B pre/postemergence soybean; assay type: in vivo, Glycine max
How it was run: as §1

sugar beet = assay: Test B pre/postemergence sugar beet; assay type: in vivo, Beta vulgaris
How it was run: as §1

velvetleaf = assay: Test B pre/postemergence velvetleaf; assay type: in vivo, Abutilon theophrasti
How it was run: as §1

wheat = assay: Test B pre/postemergence wheat; assay type: in vivo, Triticum aestivum
How it was run: as §1

wild oat = assay: Test B pre/postemergence wild oat; assay type: in vivo, Avena fatua
How it was run: as §1

purple nutsedge = assay: Test B pre/postemergence purple nutsedge; assay type: in vivo, Cyperus rotundus
How it was run: as §1

rice = assay: Test B flood test rice; assay type: in vivo, Oryza sativa
How it was run: (§2)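 Plants were grown to the 2-leaf stage before treatment with test chemical, then held in a greenhouse for twelve to sixteen days. Injury was visually rated against untreated controls on a 0–10 scale, where 0 is no effect and 10 is complete control.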

smallflower flatsedge = assay: Test B flood test smallflower flatsedge; assay type: in vivo, Cyperus difformis
How it was run: as §2

duck salad = assay: Test B flood test duck salad; assay type: in vivo, Heteranthera limosa
How it was run: as §2

bamyardgrass = assay: Test B flood test barnyardgrass; assay type: in vivo, Echinochloa crus-galli
How it was run: as §2

[1] = Postemergence, Rate 62 g/ha, scale 0 to 10, 0 is no effect, 10 is complete control
[2] = Postemergence, Rate 250 g/ha, scale 0 to 10, 0 no effect, 10 complete control
[3] = Preemergence, Rate 62 g/ha, scale 0 to 10 (0 no effect, 10 complete control)
[4] = Preemergence, Rate 125 g/ha, scale 0 to 10 (0 no effect, 10 complete control)
[5] = Preemergence, Rate 250 g/ha, scale of 0 to 10 where 0 is no effect and 10 is complete control
[6] = Preemergence, Rate 500 g/ha, scale 0 (no effect) to 10 (complete control)
[7] = Rate 125 g/ha, Postemergence, scale 0 to 10, 0 no effect, 10 complete control
[8] = Rate 500 g/ha, Postemergence, scale 0 to 10, 0 no effect, 10 complete control
[9] = Rate 125 g/ha, Postemergence section (flood test species), scale 0 to 10, 0 no effect, 10 complete control
[10] = Rate 500 g/ha, listed under Postemergence (flood test species), scale 0 to 10, 0 no effect, 10 complete control
[11] = flood test, listed under Postemergence, Rate 250 g/ha, scale 0 to 10, 0 no effect, 10 complete control

With `Cc1nn(C)c(C)c1-n1c(=O)on(C(=O)N(c2ccc(F)cc2F)C(C)C)c1=O` [Compound 76] the “Bedstraw plant response rating” value (bedstraw; [1]) was 0, the “Bedstraw plant response rating” value (bedstraw; [2]) was 2 and the “Bedstraw plant response rating” value (bedstraw; [3]) was 0. The “Plant response rating, Bedstraw” value (bedstraw; [4]) was 0, the “Plant response rating, Bedstraw” value (bedstraw; [5]) was 0 and the “Bedstraw plant response rating” value (bedstraw; [6]) was 0. For the same molecule, the “Bedstraw plant response rating” value (bedstraw; [7]) was 0, the “Bedstraw plant response rating” value (bedstraw; [8]) was 4 and the “Blackgrass plant response rating” value (blackgrass; [1]) was 0. For the same molecule, the “Blackgrass plant response rating” value (blackgrass; [2]) was 6, the “Blackgrass plant response rating” value (blackgrass; [3]) was 0 and the “Plant response rating, Blackgrass” value (blackgrass; [4]) was 2. The “Plant response rating, Blackgrass” value (blackgrass; [5]) was 4, the “Blackgrass plant response rating” value (blackgrass; [6]) was 8 and the “Blackgrass plant response rating” value (blackgrass; [7]) was 2. For the same molecule, the “Blackgrass plant response rating” value (blackgrass; [8]) was 8, the “B. signalgrass plant response rating” value (surinam grass; [1]) was 0 and the “B. signalgrass plant response rating” value (surinam grass; [2]) was 5. The “B. signalgrass plant response rating” value (surinam grass; [3]) was 0, the “Plant response rating, B. signalgrass” value (surinam grass; [4]) was 0 and the “Plant response rating, B. signalgrass” value (surinam grass; [5]) was 2. The “B. signalgrass plant response rating” value (surinam grass; [6]) was 8, the “B. signalgrass plant response rating” value (surinam grass; [7]) was 0 and the “B. signalgrass plant response rating” value (surinam grass; Rate 500 g/ha, Postemergence, scale of 0 to 10 where 0 is no effect and 10 is complete control) was 9. The “Cocklebur plant response rating” value (cocklebur; [1]) was 0, the “Cocklebur plant response rating” value (cocklebur; [2]) was 3 and the “Cocklebur plant response rating” value (cocklebur; [3]) was 0. The “Plant response rating, Cocklebur” value (cocklebur; [4]) was 0, the “Plant response rating, Cocklebur” value (cocklebur; [5]) was 0 and the “Cocklebur plant response rating” value (cocklebur; [6]) was 0. For the same molecule, the “Cocklebur plant response rating” value (cocklebur; [7]) was 0, the “Cocklebur plant response rating” value (cocklebur; [8]) was 4 and the “Corn plant response rating” value (corn; [1]) was 0. For the same molecule, the “Corn plant response rating” value (corn; [2]) was 0, the “Corn plant response rating” value (corn; [3]) was 0 and the “Plant response rating, Corn” value (corn; [4]) was 0. For the same molecule, the “Plant response rating, Corn” value (corn; [5]) was 2, the “Corn plant response rating” value (corn; [6]) was 4 and the “Corn plant response rating” value (corn; [7]) was 0. For the same molecule, the “Corn plant response rating” value (corn; [8]) was 0, the “Crabgrass plant response rating” value (crabgrass; [1]) was 2 and the “Crabgrass plant response rating” value (crabgrass; [2]) was 8. The “Crabgrass plant response rating” value (crabgrass; [3]) was 3, the “Plant response rating, Crabgrass” value (crabgrass; [4]) was 4 and the “Plant response rating, Crabgrass” value (crabgrass; [5]) was 8. For the same molecule, the “Crabgrass plant response rating” value (crabgrass; [6]) was 8, the “Crabgrass plant response rating” value (crabgrass; [7]) was 4 and the “Crabgrass plant response rating” value (crabgrass; [8]) was 9. The “Soybean plant response rating” value (soybean; [1]) was 0, the “Soybean plant response rating” value (soybean; [2]) was 2 and the “Soybean plant response rating” value (soybean; [3]) was 0. The “Plant response rating, Soybean” value (soybean; [4]) was 0, the “Plant response rating, Soybean” value (soybean; [5]) was 0 and the “Soybean plant response rating” value (soybean; [6]) was 0. For the same molecule, the “Soybean plant response rating” value (soybean; [7]) was 1, the “Soybean plant response rating” value (soybean; [8]) was 2 and the “Sugarbeets plant response rating” value (sugar beet; [1]) was 0. The “Sugarbeets plant response rating” value (sugar beet; [2]) was 2, the “Sugarbeets plant response rating” value (sugar beet; [3]) was 0 and the “Plant response rating, Sugarbeets” value (sugar beet; [4]) was 0. The “Plant response rating, Sugarbeets” value (sugar beet; [5]) was 0, the “Sugarbeets plant response rating” value (sugar beet; [6]) was 0 and the “Sugarbeets plant response rating” value (sugar beet; [7]) was 0. The “Sugarbeets plant response rating” value (sugar beet; [8]) was 3, the “Velvetleaf plant response rating” value (velvetleaf; [1]) was 0 and the “Velvetleaf plant response rating” value (velvetleaf; [2]) was 3. For the same molecule, the “Velvetleaf plant response rating” value (velvetleaf; [3]) was 0, the “Plant response rating, Velvetleaf” value (velvetleaf; [4]) was 0 and the “Plant response rating, Velvetleaf” value (velvetleaf; [5]) was 0. The “Velvetleaf plant response rating” value (velvetleaf; [6]) was 0, the “Velvetleaf plant response rating” value (velvetleaf; [7]) was 0 and the “Velvetleaf plant response rating” value (velvetleaf; [8]) was 4. The “Wheat plant response rating” value (wheat; [1]) was 0, the “Wheat plant response rating” value (wheat; [2]) was 0 and the “Wheat plant response rating” value (wheat; [3]) was 0. The “Plant response rating, Wheat” value (wheat; [4]) was 0, the “Plant response rating, Wheat” value (wheat; [5]) was 0 and the “Wheat plant response rating” value (wheat; [6]) was 2. For the same molecule, the “Wheat plant response rating” value (wheat; [7]) was 0, the “Wheat plant response rating” value (wheat; [8]) was 3 and the “Wild oats plant response rating” value (wild oat; [1]) was 0. The “Wild oats plant response rating” value (wild oat; [2]) was 2, the “Wild oats plant response rating” value (wild oat; [3]) was 0 and the “Plant response rating, Wild oats” value (wild oat; [4]) was 0. The “Plant response rating, Wild oats” value (wild oat; [5]) was 4, the “Wild oats plant response rating” value (wild oat; [6]) was 4 and the “Wild oats plant response rating” value (wild oat; [7]) was 0. The “Wild oats plant response rating” value (wild oat; [8]) was 5, the “Nutsedge plant response rating” value (purple nutsedge; [1]) was 0 and the “Nutsedge plant response rating” value (purple nutsedge; [2]) was 0. For the same molecule, the “Nutsedge plant response rating” value (purple nutsedge; [3]) was 0, the “Plant response rating, Nutsedge” value (purple nutsedge; [4]) was 0 and the “Plant response rating, Nutsedge” value (purple nutsedge; [5]) was 0. The “Nutsedge plant response rating” value (purple nutsedge; [6]) was 0, the “Nutsedge plant response rating” value (purple nutsedge; [7]) was 0 and the “Nutsedge plant response rating” value (purple nutsedge; [8]) was 0. For the same molecule, the “Rice plant response rating” value (rice; [1]) was 0, the “Rice plant response rating” value (rice; [9]) was 0 and the “Rice plant response rating” value (rice; [10]) was 3. The “Rice plant response rating” value (rice; [11]) was 3, the “S. Flatsedge plant response rating” value (smallflower flatsedge; [1]) was 0 and the “S. Flatsedge plant response rating” value (smallflower flatsedge; [9]) was 0. The “S. Flatsedge plant response rating” value (smallflower flatsedge; [10]) was 0, the “S. Flatsedge plant response rating” value (smallflower flatsedge; [11]) was 0 and the “Ducksalad plant response rating” value (duck salad; [1]) was 0. For the same molecule, the “Ducksalad plant response rating” value (duck salad; [9]) was 0, the “Ducksalad plant response rating” value (duck salad; [10]) was 0 and the “Ducksalad plant response rating” value (duck salad; [11]) was 0. For the same molecule, the “Barnyardgrass plant response rating” value (bamyardgrass; [1]) was 0, the “Barnyardgrass plant response rating” value (bamyardgrass; [9]) was 0 and the “Barnyardgrass plant response rating” value (bamyardgrass; [10]) was 0. The “Barnyardgrass plant response rating” value (bamyardgrass; [11]) was 0.
